Read-outs that look alike come from different tables or passages of the source. Positions of bridges follow the written chain, without caps; N, C: chain ends. Residues, ends and D or L forms follow the SMILES beside them. Chains are numbered I, II in the order given. *: point of attachment. X5 = Cc1cc(NC(=O)CCC(=O)O)ccc1-c1cc(CN2CCN(CC(=O)O)CCN(CC(=O)O)CCN(CC(=O)O)CC2)nc(C(=O)*)c1; X2 = CC(=O)Nc1ccc(-c2cc(CN3CCN(CC(=O)O)CCN(CC(=O)O)CCN(CC(=O)O)CC3)nc(C(=O)*)c2)c(C)c1; X4 = Cc1cc(NC(=O)CCN)ccc1-c1cc(CN2CCN(CC(=O)O)CCN(CC(=O)O)CCN(CC(=O)O)CC2)nc(C(=O)*)c1; X1 = CC(=O)Nc1ccc(-c2cc(CN3CCN(CC(=O)O)CCN(CC(=O)O)CCN(CC(=O)O)CC3)nc(C(=O)*)c2)cc1; X3 = COc1ccc(-c2cc(CN3CCN(CC(=O)O)CCN(CC(=O)O)CCN(CC(=O)O)CC3)nc(C(=O)*)c2)c(C)c1
Key:
HeLa cells [1] = assay: MTT proliferation assay (cytotoxicity)
HEK293T cells = assay: Two-photon microscopy (2PM) imaging of live cells: internalization and cytosolic delivery; type: cell-based; conditions: 1 h, 10 μM
Method: (§1) Fig. 7 2PM imaging (λex = 720 nm) of living HEK293T (A) and MRC5 (B) cells incubated 1 h with dTAT[Eu·L-Ar-NHAc] (10 μM) in RPMI medium. Top: DIC, emission recorded using a 465–680 nm bp filter and merge; Bottom: linear unmixing of autofluorescence (AF) and Eu^3+ emission and merge. Scale bars correspond to 10 μm. […]
(§2) dependence for each sample (Fig. S9), the incident power was adjusted to 35 mW to characterize the two-photon absorption spectra. Calibration of the 2P absorption spectra was performed at each excitation wavelength by comparison with that of fluorescein (10 µM, pH 11) as reference compound.[12]
(§3) General: HeLa, MRC5 and HEK293 cell lines were purchased from the ATCC and agreed by French ethic boards […]
(§4) Cell culture: HeLa cells were grown in RPMI medium supplemented with 10% fetal bovine serum (v/v) at 37°C in a 5% CO2 humidified atmosphere.
(§5) Peptides delivery in live cells: HeLa cells were seeded at 3´10^4 cells/well onto an 8-chamber Labtek-I coverglass system.
(§6) After 24 h, cells were washed three times with PBS. Cells were incubated with dTAT [Ln·L] (10 µM) in RPMI medium (without phenol red and without serum) or PBS at 37°C for 1 h. […]
(§7) Temporal Sampling Lifetime Imaging Microscopy (TSLIM) was used to record luminescence lifetime decay in cells (single pulsed excitation with the 7.56 μs temporal resolution).[13] […]

MRC5 cells = assay: as above; type: cell-based; conditions: 1 h, 10 μM
Method: as §1, §2, §3, §4, §5, §6, §7

HeLa cells [2] = assay: as above; type: cell-based; conditions: for co-internalization of a Tb3+/Eu3+ probe mixture: 1 h, Tb probe 10 μM + dTAT[Eu·L-Ar-NHAc] 5 μM; for co-internalization of a Tb3+/Eu3+ probe mixture / cytosolic delivery (diffuse Ln3+ emission): 2P excitation 720 nm; for cytosolic delivery (diffuse Ln3+ emission): 10 μM
[3] = live HeLa cells, 1 h incubation
[4] = read-out: IC50 (concentration causing a 50% reduction in proliferation), MTT proliferation assay, 2 h incubation

## CC(=O)Nc1ccc(-c2cc(CN3CCN(CC(=O)O)CCN(CC(=O)O)CCN(CC(=O)O)CC3)nc(C(=O)NCCCC[C@H](NC(=O)[C@@H](N)CSSC[C@H](N)C(=O)N[C@@H](CCCCNC(=O)c3cc(-c4ccc(NC(C)=O)cc4)cc(CN4CCN(CC(=O)O)CCN(CC(=O)O)CCN(CC(=O)O)CC4)n3)C(=O)N[C@@H](CCCNC(=N)N)C(=O)N[C@@H](CCCCN)C(=O)N[C@@H](CCCCN)C(=O)N[C@@H](CCCNC(=N)N)C(=O)N[C@@H](CCCNC(=N)N)C(=O)N[C@@H](CCC(N)=O)C(=O)N[C@@H](CCCNC(=N)N)C(=O)N[C@@H](CCCNC(=N)N)C(=O)N[C@@H](CCCNC(=N)N)C(=O)NCC(N)=O)C(=O)N[C@@H](CCCNC(=N)N)C(=O)N[C@@H](CCCCN)C(=O)N[C@@H](CCCCN)C(=O)N[C@@H](CCCNC(=N)N)C(=O)N[C@@H](CCCNC(=N)N)C(=O)N[C@@H](CCC(N)=O)C(=O)N[C@@H](CCCNC(=N)N)C(=O)N[C@@H](CCCNC(=N)N)C(=O)N[C@@H](CCCNC(=N)N)C(=O)NCC(N)=O)c2)cc1 [dTAT[Eu·L-Ar-NHAc]] (I: H-CK(X1)RKKRRQRRRG-NH2 / II: H-CK(X1)RKKRRQRRRG-NH2; disulfide I:1-II:1; N-terminus assumed)
HeLa cells [1]; MTT assay, 10 μM
  toxicity at the concentration used for 2PM: no toxicity
HEK293T cells
  cytosolic delivery (diffuse Eu3+ localization): successful cytosolic delivery
MRC5 cells
  cytosolic delivery (diffuse Eu3+ localization): successful cytosolic delivery
HeLa cells [2]; HeLa cells, 5 μM, 1 h incubation, over 6 hours after washing, determined visually
  number of cells showing cytosolic staining (diffuse Eu3+ emission): 34–38%
HeLa cells [2]; HeLa cells
  co-internalization of a Tb3+/Eu3+ probe mixture: co-internalized
HeLa cells [2]; live HeLa cells, 2.5 μM, 1 h incubation
  cell staining pattern at low concentration: only show punctate Eu^3+ around the nucleus
HeLa cells [2]; [3]
  cytosolic delivery (diffuse Ln3+ emission): cytosolic delivery

## CC(=O)Nc1ccc(-c2cc(CN3CCN(CC(=O)O)CCN(CC(=O)O)CCN(CC(=O)O)CC3)nc(C(=O)NCCCC[C@H](NC(=O)[C@@H](N)CSSC[C@H](N)C(=O)N[C@@H](CCCCNC(=O)c3cc(-c4ccc(NC(C)=O)cc4C)cc(CN4CCN(CC(=O)O)CCN(CC(=O)O)CCN(CC(=O)O)CC4)n3)C(=O)N[C@@H](CCCNC(=N)N)C(=O)N[C@@H](CCCCN)C(=O)N[C@@H](CCCCN)C(=O)N[C@@H](CCCNC(=N)N)C(=O)N[C@@H](CCCNC(=N)N)C(=O)N[C@@H](CCC(N)=O)C(=O)N[C@@H](CCCNC(=N)N)C(=O)N[C@@H](CCCNC(=N)N)C(=O)N[C@@H](CCCNC(=N)N)C(=O)NCC(N)=O)C(=O)N[C@@H](CCCNC(=N)N)C(=O)N[C@@H](CCCCN)C(=O)N[C@@H](CCCCN)C(=O)N[C@@H](CCCNC(=N)N)C(=O)N[C@@H](CCCNC(=N)N)C(=O)N[C@@H](CCC(N)=O)C(=O)N[C@@H](CCCNC(=N)N)C(=O)N[C@@H](CCCNC(=N)N)C(=O)N[C@@H](CCCNC(=N)N)C(=O)NCC(N)=O)c2)c(C)c1 [dTAT[Tb·L-^MeAr-NHAc]] (I: H-CK(X2)RKKRRQRRRG-NH2 / II: H-CK(X2)RKKRRQRRRG-NH2; disulfide I:1-II:1)
HeLa cells [1]; [4]
  IC50: 7.6 ± 1.6 µM
HeLa cells [1]; read-out: IC50 (concentration causing a 50% reduction in proliferation), MTT proliferation assay, 2 h incubation, listed as dTAT[Tb·L-^MeAr-HNAc]
  IC50: < 10 µM
HeLa cells [2]; [3]
  cytosolic delivery (diffuse Ln3+ emission): cytosolic delivery

## Cc1cc(NC(=O)CCC(=O)O)ccc1-c1cc(CN2CCN(CC(=O)O)CCN(CC(=O)O)CCN(CC(=O)O)CC2)nc(C(=O)NCCCC[C@H](NC(=O)[C@@H](N)CSSC[C@H](N)C(=O)N[C@@H](CCCCNC(=O)c2cc(-c3ccc(NC(=O)CCC(=O)O)cc3C)cc(CN3CCN(CC(=O)O)CCN(CC(=O)O)CCN(CC(=O)O)CC3)n2)C(=O)N[C@@H](CCCNC(=N)N)C(=O)N[C@@H](CCCCN)C(=O)N[C@@H](CCCCN)C(=O)N[C@@H](CCCNC(=N)N)C(=O)N[C@@H](CCCNC(=N)N)C(=O)N[C@@H](CCC(N)=O)C(=O)N[C@@H](CCCNC(=N)N)C(=O)N[C@@H](CCCNC(=N)N)C(=O)N[C@@H](CCCNC(=N)N)C(=O)NCC(N)=O)C(=O)N[C@@H](CCCNC(=N)N)C(=O)N[C@@H](CCCCN)C(=O)N[C@@H](CCCCN)C(=O)N[C@@H](CCCNC(=N)N)C(=O)N[C@@H](CCCNC(=N)N)C(=O)N[C@@H](CCC(N)=O)C(=O)N[C@@H](CCCNC(=N)N)C(=O)N[C@@H](CCCNC(=N)N)C(=O)N[C@@H](CCCNC(=N)N)C(=O)NCC(N)=O)c1 [dTAT[Tb·L-^MeAr-NHSuc(−)]] (I: H-CK(X5)RKKRRQRRRG-NH2 / II: H-CK(X5)RKKRRQRRRG-NH2; disulfide I:1-II:1)
HeLa cells [2]; [3]
  cytosolic delivery (diffuse Ln3+ emission): efficiently delivered to the cytosol

## Cc1cc(NC(=O)CCN)ccc1-c1cc(CN2CCN(CC(=O)O)CCN(CC(=O)O)CCN(CC(=O)O)CC2)nc(C(=O)NCCCC[C@H](NC(=O)[C@@H](N)CSSC[C@H](N)C(=O)N[C@@H](CCCCNC(=O)c2cc(-c3ccc(NC(=O)CCN)cc3C)cc(CN3CCN(CC(=O)O)CCN(CC(=O)O)CCN(CC(=O)O)CC3)n2)C(=O)N[C@@H](CCCNC(=N)N)C(=O)N[C@@H](CCCCN)C(=O)N[C@@H](CCCCN)C(=O)N[C@@H](CCCNC(=N)N)C(=O)N[C@@H](CCCNC(=N)N)C(=O)N[C@@H](CCC(N)=O)C(=O)N[C@@H](CCCNC(=N)N)C(=O)N[C@@H](CCCNC(=N)N)C(=O)N[C@@H](CCCNC(=N)N)C(=O)NCC(N)=O)C(=O)N[C@@H](CCCNC(=N)N)C(=O)N[C@@H](CCCCN)C(=O)N[C@@H](CCCCN)C(=O)N[C@@H](CCCNC(=N)N)C(=O)N[C@@H](CCCNC(=N)N)C(=O)N[C@@H](CCC(N)=O)C(=O)N[C@@H](CCCNC(=N)N)C(=O)N[C@@H](CCCNC(=N)N)C(=O)N[C@@H](CCCNC(=N)N)C(=O)NCC(N)=O)c1 [dTAT[Tb·L-^MeAr-NHβAla(+)]] (I: H-CK(X4)RKKRRQRRRG-NH2 / II: H-CK(X4)RKKRRQRRRG-NH2; disulfide I:1-II:1)
HeLa cells [2]; HeLa cells
  co-internalization of a Tb3+/Eu3+ probe mixture: co-internalized
HeLa cells [2]; [3]
  cytosolic delivery (diffuse Ln3+ emission): efficiently delivered to the cytosol

## COc1ccc(-c2cc(CN3CCN(CC(=O)O)CCN(CC(=O)O)CCN(CC(=O)O)CC3)nc(C(=O)NCCCC[C@H](NC(=O)[C@@H](N)CSSC[C@H](N)C(=O)N[C@@H](CCCCNC(=O)c3cc(-c4ccc(OC)cc4C)cc(CN4CCN(CC(=O)O)CCN(CC(=O)O)CCN(CC(=O)O)CC4)n3)C(=O)N[C@@H](CCCNC(=N)N)C(=O)N[C@@H](CCCCN)C(=O)N[C@@H](CCCCN)C(=O)N[C@@H](CCCNC(=N)N)C(=O)N[C@@H](CCCNC(=N)N)C(=O)N[C@@H](CCC(N)=O)C(=O)N[C@@H](CCCNC(=N)N)C(=O)N[C@@H](CCCNC(=N)N)C(=O)N[C@@H](CCCNC(=N)N)C(=O)NCC(N)=O)C(=O)N[C@@H](CCCNC(=N)N)C(=O)N[C@@H](CCCCN)C(=O)N[C@@H](CCCCN)C(=O)N[C@@H](CCCNC(=N)N)C(=O)N[C@@H](CCCNC(=N)N)C(=O)N[C@@H](CCC(N)=O)C(=O)N[C@@H](CCCNC(=N)N)C(=O)N[C@@H](CCCNC(=N)N)C(=O)N[C@@H](CCCNC(=N)N)C(=O)NCC(N)=O)c2)c(C)c1 [dTAT[Tb·L-^MeAr-OMe]] (I: H-CK(X3)RKKRRQRRRG-NH2 / II: H-CK(X3)RKKRRQRRRG-NH2; disulfide I:1-II:1)
HeLa cells [1]; [4]
  IC50: 18 ± 3 µM
HeLa cells [2]; [3]
  cytosolic delivery (diffuse Ln3+ emission): successful cytosolic delivery

Source: publication PMC11206396 (Chemical Science, 2024)
